# Assay results from BindingDB's records for doi:10.1007/s00213-002-1073-7 (WestfÄLische Wilhelms-Universit&Auml, 2002).
# Legend:
# [1] = target: Sodium-dependent dopamine transporter (Bos taurus, UniProt P27922)
# [2] = target: T1, Muscarinic acetylcholine receptor M5 (Homo sapiens, UniProt P08912)
# T1 sequence (P08912 whole entry): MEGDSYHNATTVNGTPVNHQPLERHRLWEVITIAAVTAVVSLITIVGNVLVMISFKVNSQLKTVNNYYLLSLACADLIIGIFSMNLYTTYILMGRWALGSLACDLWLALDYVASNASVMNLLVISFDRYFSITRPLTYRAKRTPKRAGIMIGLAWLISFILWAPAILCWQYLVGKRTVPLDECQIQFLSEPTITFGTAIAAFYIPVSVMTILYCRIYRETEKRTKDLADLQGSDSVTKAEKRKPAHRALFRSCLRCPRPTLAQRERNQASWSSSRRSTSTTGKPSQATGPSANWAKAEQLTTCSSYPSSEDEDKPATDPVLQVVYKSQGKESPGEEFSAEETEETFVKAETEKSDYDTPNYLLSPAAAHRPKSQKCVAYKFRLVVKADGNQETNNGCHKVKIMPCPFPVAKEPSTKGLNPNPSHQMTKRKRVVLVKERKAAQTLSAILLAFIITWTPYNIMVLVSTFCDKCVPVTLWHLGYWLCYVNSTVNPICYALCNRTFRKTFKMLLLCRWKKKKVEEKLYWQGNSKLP
# D(2) dopamine receptor = D(2) dopamine receptor (Rattus norvegicus, UniProt P61169)
# Chain of D(2) dopamine receptor (P61169 whole entry): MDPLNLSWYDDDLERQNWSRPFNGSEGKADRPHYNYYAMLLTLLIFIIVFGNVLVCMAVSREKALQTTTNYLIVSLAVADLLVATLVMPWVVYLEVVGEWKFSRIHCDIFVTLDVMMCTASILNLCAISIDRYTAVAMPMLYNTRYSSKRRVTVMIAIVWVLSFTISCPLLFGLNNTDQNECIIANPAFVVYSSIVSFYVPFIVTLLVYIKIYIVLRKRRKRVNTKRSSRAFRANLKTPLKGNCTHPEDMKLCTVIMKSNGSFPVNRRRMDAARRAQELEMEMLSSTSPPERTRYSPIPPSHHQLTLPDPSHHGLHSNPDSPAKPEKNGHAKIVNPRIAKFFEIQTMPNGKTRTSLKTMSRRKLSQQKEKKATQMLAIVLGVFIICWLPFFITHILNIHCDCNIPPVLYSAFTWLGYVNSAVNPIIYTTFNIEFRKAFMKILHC
# [3] = target: T2, Muscarinic acetylcholine receptor M4 (Homo sapiens, UniProt P08173)
# T2 sequence (P08173 whole entry): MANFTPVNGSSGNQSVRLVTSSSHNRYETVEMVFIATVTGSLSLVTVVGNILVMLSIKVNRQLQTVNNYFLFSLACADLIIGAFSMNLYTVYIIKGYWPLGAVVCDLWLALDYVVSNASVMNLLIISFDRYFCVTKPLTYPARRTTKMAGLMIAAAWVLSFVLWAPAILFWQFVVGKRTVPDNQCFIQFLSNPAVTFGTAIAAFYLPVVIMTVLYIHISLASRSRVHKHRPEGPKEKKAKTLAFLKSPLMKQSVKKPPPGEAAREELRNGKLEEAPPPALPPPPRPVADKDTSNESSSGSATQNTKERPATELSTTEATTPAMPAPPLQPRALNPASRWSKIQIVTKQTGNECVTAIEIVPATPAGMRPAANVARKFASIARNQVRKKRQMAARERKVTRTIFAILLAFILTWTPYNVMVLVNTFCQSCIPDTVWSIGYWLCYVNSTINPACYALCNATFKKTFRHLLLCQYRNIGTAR
# [4] = target: 5-hydroxytryptamine receptor 1D (Homo sapiens, UniProt P28221)
# Chain of 5-hydroxytryptamine receptor 1D (P28221 whole entry): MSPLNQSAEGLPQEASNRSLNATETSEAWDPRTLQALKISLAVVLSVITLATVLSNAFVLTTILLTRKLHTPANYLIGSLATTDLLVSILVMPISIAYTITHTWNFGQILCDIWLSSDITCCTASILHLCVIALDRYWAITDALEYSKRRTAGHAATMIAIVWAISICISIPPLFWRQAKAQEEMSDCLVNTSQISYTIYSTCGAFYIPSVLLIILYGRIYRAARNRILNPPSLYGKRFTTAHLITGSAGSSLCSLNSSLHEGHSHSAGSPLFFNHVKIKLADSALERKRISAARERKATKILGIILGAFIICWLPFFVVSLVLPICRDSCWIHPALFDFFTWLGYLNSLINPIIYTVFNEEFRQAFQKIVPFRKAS
# [5] = target: T3, Alpha-2B adrenergic receptor (Homo sapiens, UniProt P18089)
# T3 sequence (P18089 whole entry): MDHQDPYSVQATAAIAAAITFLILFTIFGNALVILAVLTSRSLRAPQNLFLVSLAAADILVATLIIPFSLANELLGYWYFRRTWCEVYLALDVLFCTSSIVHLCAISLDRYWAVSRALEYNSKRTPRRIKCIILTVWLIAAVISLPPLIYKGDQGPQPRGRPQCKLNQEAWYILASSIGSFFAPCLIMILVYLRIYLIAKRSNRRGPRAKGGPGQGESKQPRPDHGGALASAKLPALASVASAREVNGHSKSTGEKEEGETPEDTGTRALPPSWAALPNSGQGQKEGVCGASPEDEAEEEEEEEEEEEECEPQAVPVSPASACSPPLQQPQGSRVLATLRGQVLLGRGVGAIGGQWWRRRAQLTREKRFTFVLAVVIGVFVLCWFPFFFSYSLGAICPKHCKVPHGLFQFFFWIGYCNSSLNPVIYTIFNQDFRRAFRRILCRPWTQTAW
# [6] = target: T4, Muscarinic acetylcholine receptor M2 (Homo sapiens, UniProt P08172)
# T4 sequence (P08172 whole entry): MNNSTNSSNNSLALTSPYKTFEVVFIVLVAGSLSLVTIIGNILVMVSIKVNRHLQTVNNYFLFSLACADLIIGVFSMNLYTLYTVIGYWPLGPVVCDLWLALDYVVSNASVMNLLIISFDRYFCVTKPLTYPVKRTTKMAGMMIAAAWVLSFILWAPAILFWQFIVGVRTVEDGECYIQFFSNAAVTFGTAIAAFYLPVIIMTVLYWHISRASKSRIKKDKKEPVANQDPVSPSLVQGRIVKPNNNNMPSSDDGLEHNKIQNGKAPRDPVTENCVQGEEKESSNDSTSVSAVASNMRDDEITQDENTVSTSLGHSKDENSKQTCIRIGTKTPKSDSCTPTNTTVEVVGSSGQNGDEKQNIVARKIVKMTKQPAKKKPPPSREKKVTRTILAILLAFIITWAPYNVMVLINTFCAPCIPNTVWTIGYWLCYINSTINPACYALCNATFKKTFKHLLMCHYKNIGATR
# [7] = target: 5-hydroxytryptamine receptor 6 (Homo sapiens, UniProt P50406)
# Chain of 5-hydroxytryptamine receptor 6 (P50406 whole entry): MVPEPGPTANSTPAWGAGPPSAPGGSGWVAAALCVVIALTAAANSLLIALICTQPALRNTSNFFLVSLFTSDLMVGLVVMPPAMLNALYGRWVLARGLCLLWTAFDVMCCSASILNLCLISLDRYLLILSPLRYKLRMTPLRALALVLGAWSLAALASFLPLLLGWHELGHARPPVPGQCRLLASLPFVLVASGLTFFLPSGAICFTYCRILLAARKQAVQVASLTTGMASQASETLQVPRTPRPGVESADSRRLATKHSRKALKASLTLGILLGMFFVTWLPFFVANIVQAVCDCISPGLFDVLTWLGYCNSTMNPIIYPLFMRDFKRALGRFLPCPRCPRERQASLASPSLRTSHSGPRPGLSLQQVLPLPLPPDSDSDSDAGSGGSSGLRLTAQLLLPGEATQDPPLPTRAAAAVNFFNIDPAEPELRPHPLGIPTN
# [8] = target: Beta-2 adrenergic receptor (Rattus norvegicus, UniProt P10608)
# Chain of Beta-2 adrenergic receptor (P10608 whole entry): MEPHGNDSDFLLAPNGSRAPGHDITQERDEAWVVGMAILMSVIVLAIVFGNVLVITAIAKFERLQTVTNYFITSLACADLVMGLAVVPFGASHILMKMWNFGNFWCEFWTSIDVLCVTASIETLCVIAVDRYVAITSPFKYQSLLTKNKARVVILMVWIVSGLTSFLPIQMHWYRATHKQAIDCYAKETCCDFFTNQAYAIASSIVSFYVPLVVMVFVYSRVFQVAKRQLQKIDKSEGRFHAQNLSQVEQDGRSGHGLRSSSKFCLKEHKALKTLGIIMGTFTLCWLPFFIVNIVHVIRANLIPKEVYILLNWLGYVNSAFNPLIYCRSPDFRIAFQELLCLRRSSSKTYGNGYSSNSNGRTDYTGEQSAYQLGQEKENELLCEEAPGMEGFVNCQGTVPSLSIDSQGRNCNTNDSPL
# Histamine H1 receptor = Histamine H1 receptor (Rattus norvegicus, UniProt P31390)
# Chain of Histamine H1 receptor (P31390 whole entry): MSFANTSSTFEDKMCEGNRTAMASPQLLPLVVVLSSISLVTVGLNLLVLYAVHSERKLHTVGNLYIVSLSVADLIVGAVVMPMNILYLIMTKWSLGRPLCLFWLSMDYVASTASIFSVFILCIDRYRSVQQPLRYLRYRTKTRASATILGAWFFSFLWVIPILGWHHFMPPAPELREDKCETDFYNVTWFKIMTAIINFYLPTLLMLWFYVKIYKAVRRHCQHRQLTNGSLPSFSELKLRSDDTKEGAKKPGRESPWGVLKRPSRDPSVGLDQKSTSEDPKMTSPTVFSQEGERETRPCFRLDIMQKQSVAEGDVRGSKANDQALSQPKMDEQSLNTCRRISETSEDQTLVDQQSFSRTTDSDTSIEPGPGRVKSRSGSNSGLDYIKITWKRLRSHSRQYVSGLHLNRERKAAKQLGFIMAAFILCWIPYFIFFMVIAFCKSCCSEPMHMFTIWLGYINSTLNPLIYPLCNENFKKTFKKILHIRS
# D(4) dopamine receptor = target: T5, D(4) dopamine receptor (Rattus norvegicus, UniProt P30729)
# T5 sequence (P30729 whole entry): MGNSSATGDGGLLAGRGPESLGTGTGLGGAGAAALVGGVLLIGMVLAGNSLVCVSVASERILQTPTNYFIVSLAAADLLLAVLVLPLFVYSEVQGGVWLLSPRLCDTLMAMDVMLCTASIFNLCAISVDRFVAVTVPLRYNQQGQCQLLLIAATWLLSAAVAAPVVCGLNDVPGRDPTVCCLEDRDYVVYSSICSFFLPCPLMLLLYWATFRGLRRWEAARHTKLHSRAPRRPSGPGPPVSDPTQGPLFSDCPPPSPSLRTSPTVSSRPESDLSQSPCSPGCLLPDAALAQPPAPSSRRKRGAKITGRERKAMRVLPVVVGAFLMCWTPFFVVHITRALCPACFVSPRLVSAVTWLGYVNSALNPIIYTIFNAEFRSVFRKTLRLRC
# Chain of Sodium-dependent dopamine transporter (P27922 whole entry): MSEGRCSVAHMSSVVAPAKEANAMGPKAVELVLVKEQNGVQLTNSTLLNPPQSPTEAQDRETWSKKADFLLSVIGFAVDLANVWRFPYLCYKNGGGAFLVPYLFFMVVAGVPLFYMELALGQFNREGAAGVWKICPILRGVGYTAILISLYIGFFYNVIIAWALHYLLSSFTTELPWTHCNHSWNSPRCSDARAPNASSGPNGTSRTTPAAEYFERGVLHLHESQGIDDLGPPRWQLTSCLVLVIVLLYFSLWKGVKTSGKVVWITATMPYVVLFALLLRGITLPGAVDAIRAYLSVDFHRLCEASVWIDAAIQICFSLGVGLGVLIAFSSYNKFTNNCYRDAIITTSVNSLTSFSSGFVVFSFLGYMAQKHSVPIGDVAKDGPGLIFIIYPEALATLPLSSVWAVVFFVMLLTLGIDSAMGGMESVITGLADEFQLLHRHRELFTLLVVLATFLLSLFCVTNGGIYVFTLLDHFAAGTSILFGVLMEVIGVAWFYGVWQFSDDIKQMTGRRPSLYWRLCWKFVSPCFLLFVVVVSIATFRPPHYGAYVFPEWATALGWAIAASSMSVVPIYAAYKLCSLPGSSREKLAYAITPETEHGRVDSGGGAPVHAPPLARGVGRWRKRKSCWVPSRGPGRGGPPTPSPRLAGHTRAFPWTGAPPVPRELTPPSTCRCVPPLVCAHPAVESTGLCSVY
Ki [1] [µM],Ki [2] [µM],Ki (D(2) dopamine receptor) [µM],Ki [3] [µM],Ki [4] [µM],Ki [5] [µM],Ki [6] [µM],Ki [7] [µM],Ki [8] [µM],Ki (Histamine H1 receptor) [µM],Ki (D(4) dopamine receptor) [µM],SMILES
> 10,0.0351,> 10,> 10,> 10,> 10,> 10,> 10,> 10,> 10,> 10,C[C@@H]1O[C@@H](OC[C@H]2O[C@@H](Oc3c(-c4ccc(O)c(O)c4)oc4cc(O)cc(O)c4c3=O)[C@H](O)[C@@H](O)[C@@H]2O)[C@H](O)[C@H](O)[C@H]1O [3-Rhamnoglucosylquercetin]
> 10,> 10,> 10,> 10,> 10,> 10,> 10,> 10,> 10,> 10,> 10,O=c1cc(O)cc2oc(-c3ccc(O)c(O)c3)c(OC3OC(CO)C(O)C(O)C3O)c(O)c1-2 (stereo unspecified) [NSC_5318390]
0.877,> 10,> 10,> 10,> 10,> 10,> 10,> 10,> 10,> 10,> 10,O=c1cc(O)cc2oc(-c3ccc(O)c(-c4c(O)cc(O)c5c(=O)cc(-c6ccc(O)cc6)oc45)c3)cc(O)c1-2

# Second part, the molecule before the results:
SMILES,Ki [1] [µM],Ki [2] [µM],Ki (D(2) dopamine receptor) [µM],Ki [3] [µM],Ki [4] [µM],Ki [5] [µM],Ki [6] [µM],Ki [7] [µM],Ki [8] [µM],Ki (Histamine H1 receptor) [µM],Ki (D(4) dopamine receptor) [µM]
"O=c1c(O)c(-c2ccc(O)c(O)c2)oc2cc(O)cc(O)c12 [2-(3,4-dihydroxyphenyl)-3,5,7-trihydroxy-chromone;hydrate]",> 10,> 10,> 10,> 10,> 10,> 10,> 10,> 10,> 10,> 10,7.85
CC(C)=CCC[C@]1(C)[C@@H](CC=C(C)C)C[C@]2(CC=C(C)C)C(=O)C(CC=C(C)C)C(=O)[C@]1(C(=O)C(C)C)C2=O (stereo partly specified),> 10,> 10,> 10,> 10,> 10,> 10,> 10,> 10,> 10,> 10,> 10
C[C@@H]1O[C@@H](Oc2c(-c3ccc(O)c(O)c3)oc3cc(O)cc(=O)c-3c2O)[C@H](O)[C@H](O)[C@H]1O,> 10,> 10,> 10,> 10,> 10,> 10,> 10,> 10,> 10,> 10,> 10
